Test results published in patent US6632981B1, “DNA sequences encoding polypeptides having beta-1,3-glucanase activity” (Novartis Finance Corporation, priority 1988, dated 2003).

Test system: chimeric PR-1a/GUS gene
Test: GUS induction in transformed tomato callus
Assay type: cell-based
Conditions: 250 g/l spray, 21 hours
Protocol: Agrobacterium strains containing the appropriate vectors as described above (e.g. CIB270, CIB271, CIB272, CIB273, pCIB271×15955, pCIB271 X A208, pCIB271 X A281, pCIB271 X A4, pCIB272 X 15955, pCIB272 X A208, pCIB272 X A281, pCIB272 X A4, pCIB273 X 15955, pCIB273 X A208, pCIB273 X A281, and pCIB273 X A4) are grown as described in Example 112. The bacteria, diluted to an OD600 of 0.2-0.4, are then used for inoculation of stems of tomato seedlings prepared as described below.
Tomato seeds are soaked 20 min in 10% chlorox and rinsed with sterile water. […]
After one week the inoculated stems are cut and placed on 0.7% agar containing MS salts, 3% sucrose, […] 6-benzylaminopurine, 100 µg/ml carbenicillin, 100 µg/ml mefoxim, and 50 µg/ml kanamycin. […] The callus is transferred to fresh media every two weeks until sufficient quantity is obtained for 4 plates. […]
The reactions are carried out in the wells of ELISA plates by mixing 5-25 l extract with 120-100 l GUS assay buffer (50 mM sodium phosphate buffer pH 7.0, 0.1% Triton X-100, 10 mM β-mercaptoethanol) containing 4-methyl umbelliferyl glucuronide (MU) at a final concentration of 2 mM in a total volume of 125 l. […] The concentration of fluorescent indicator released is determined by reading the plate on a Flow Labs Fluoroskan II ELISA plate reader.

In the case of `COC(=O)c1cccc2nnsc12` [Methyl benzo-1,2,3-thiadiazole-7-carboxylate], the GUS activities (tomato callus transformed with CIB271, H2O spray 17.2) was 56.1 pKat MU/mg protein and the GUS activities (tomato callus transformed with CIB273 X A4, H2O spray 4.6) was 22.1 pKat MU/mg protein.
